From ChEMBL document CHEMBL2163242, “Development of anti-coxsackievirus agents targeting 3C protease” (Bioorg Med Chem Lett, 2012) come the findings set out here.

In one data set the target is Genome polyprotein (Coxsackievirus B3 (strain Nancy), UniProt P03313). Briefly: Inhibition of Coxsackievirus B3 protease 3c using NMA-EALFQGPPVK-DNP as substrate incubated for 5 mins prior to substrate addition measured after 1 hr by FRET assay.
Data set [1] has as its system Coxsackievirus B3. As to the kind of experiment: Antiviral activity against Coxsackievirus B3 H3 infected in HeLa-UVM cells assessed as host cell viability at 1 uM after 6 to 24 hrs by CCK8 assay. In kind it is functional.
Data set [2] has as its target Genome polyprotein (Coxsackievirus B3 (strain Nancy)) (UniProt P03313). As to the kind of experiment: Inhibition of Coxsackievirus B3 protease 3c using NMA-EALFQGPPVK-DNP as substrate at 10 uM incubated for 5 mins prior to substrate addition measured after 1 hr by FRET assay.
In data set [3] the test system is Coxsackievirus B3. As to the kind of experiment: Antiviral activity against Coxsackievirus B3 H3 infected in HeLa-UVM cells assessed as host cell viability at 0.5 uM after 6 to 24 hrs by CCK8 assay. In kind it is functional. Background: Formazan colour is commonly taken as a measure of viable cells.
The nature of data set [4]: Aqueous solubility of the compound by HPLC analysis. In kind it is physicochemical. The settings on record: buffer.

Sequence of Genome polyprotein (P03313 1541-1723 limits assumed): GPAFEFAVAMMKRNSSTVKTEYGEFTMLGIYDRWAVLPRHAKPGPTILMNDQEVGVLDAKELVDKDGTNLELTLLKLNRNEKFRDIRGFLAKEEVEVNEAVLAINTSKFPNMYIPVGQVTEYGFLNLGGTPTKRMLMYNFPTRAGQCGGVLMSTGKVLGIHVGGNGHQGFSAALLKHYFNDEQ
Sequence of Genome polyprotein (Coxsackievirus B3 (strain Nancy)) (P03313 whole entry): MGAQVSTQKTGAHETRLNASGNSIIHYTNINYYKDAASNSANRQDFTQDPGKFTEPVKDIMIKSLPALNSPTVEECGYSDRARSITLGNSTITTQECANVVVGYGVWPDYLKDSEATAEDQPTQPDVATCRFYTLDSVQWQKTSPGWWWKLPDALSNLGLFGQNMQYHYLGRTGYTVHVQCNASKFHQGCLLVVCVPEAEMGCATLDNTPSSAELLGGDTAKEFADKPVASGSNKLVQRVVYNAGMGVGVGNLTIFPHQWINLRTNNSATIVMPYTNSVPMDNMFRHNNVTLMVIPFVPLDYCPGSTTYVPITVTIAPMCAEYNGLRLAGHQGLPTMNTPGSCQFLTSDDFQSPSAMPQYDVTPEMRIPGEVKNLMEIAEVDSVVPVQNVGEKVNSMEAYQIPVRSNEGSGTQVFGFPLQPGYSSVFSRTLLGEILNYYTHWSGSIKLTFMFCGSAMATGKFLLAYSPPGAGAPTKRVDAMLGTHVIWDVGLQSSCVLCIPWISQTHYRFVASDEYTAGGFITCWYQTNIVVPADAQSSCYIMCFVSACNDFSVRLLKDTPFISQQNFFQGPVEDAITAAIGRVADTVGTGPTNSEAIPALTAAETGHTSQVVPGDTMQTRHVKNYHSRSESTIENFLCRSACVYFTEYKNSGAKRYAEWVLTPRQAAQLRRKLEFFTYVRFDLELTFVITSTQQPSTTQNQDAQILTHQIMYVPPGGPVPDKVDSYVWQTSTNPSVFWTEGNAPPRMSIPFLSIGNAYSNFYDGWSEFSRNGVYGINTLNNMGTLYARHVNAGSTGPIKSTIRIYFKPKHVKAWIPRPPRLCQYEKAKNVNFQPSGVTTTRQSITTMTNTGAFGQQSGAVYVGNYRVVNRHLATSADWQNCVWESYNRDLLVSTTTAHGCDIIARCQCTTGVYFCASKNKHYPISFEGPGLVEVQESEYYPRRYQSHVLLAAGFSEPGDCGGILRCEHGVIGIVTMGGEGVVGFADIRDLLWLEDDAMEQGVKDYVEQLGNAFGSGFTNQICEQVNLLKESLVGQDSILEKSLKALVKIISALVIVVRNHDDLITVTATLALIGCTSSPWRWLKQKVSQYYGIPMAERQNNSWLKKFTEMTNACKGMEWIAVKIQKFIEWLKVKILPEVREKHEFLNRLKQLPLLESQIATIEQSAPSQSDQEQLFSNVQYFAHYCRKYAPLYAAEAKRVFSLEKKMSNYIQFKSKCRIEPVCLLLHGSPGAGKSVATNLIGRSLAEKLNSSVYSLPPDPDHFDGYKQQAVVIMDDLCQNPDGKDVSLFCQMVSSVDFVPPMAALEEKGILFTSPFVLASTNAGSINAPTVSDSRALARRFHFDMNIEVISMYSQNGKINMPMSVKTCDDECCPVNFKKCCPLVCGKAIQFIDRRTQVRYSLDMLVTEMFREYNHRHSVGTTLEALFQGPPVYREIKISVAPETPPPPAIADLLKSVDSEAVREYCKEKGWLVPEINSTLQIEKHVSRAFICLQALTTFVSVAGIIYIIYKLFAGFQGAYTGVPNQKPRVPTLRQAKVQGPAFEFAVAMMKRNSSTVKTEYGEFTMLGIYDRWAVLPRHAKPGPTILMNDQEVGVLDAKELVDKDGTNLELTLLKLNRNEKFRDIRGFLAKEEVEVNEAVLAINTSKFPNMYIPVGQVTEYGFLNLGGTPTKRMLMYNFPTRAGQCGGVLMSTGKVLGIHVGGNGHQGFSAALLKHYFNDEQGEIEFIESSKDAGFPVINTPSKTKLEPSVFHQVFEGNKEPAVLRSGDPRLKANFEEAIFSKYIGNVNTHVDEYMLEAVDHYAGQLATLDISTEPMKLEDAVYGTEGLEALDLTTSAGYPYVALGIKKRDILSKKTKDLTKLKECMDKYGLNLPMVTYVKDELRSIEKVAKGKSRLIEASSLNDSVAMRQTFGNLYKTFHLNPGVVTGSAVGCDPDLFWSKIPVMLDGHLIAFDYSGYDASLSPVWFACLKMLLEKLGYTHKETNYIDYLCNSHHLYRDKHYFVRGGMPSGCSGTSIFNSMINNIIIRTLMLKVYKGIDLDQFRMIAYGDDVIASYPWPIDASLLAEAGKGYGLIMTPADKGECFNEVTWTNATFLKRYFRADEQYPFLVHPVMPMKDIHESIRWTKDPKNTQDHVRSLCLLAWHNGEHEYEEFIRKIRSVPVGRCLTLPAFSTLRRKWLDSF

A word on the IC50: it is the point on the concentration scale where inhibition reaches its midpoint. A high value points to lower potency. For the compound `Cc1cc(C(=O)N[C@H](C(=O)N[C@@H](Cc2ccc(F)cc2)C(=O)N[C@@H](/C=C/C(=O)OCc2cccc3ncccc23)CCC(N)=O)C(C)C)no1`, half-maximal inhibition on Genome polyprotein (IC50) was put at 0.28 µM. Moreover, the Activity with Coxsackievirus B3 [1] was 50%.

What is called inhibition is the change of the read-out against control, counted positive when it falls. As for `Cc1cc(C(=O)N[C@H](C(=O)N[C@@H](Cc2ccc(F)cc2)C(=O)O)C(C)C)no1`, the inhibition in data set [2] worked out at 33.5%.

`Cc1cc(C(=O)N[C@H](C(=O)N[C@@H](Cc2ccc(F)cc2)C(=O)N[C@@H](/C=C/C(=O)OCc2ccnc3ccccc23)CCC(N)=O)C(C)C)no1` showed an IC50 against Genome polyprotein of 0.13 µM. The Activity with Coxsackievirus B3 [1] and in the data set on Coxsackievirus B3 [3] was 50% throughout.

In turn, `Cc1cc(C(=O)N[C@H](C(=O)N[C@@H](Cc2ccc(F)cc2)C(=O)N[C@@H](/C=C/C(=O)OCc2ccc3cnccc3c2)CCC(N)=O)C(C)C)no1` registered a half-maximal inhibitory concentration (IC50) against Genome polyprotein of 0.24 µM. In the data set with Coxsackievirus B3 [1], the Activity came out at 50%.

For the compound `Cc1cc(C(=O)N[C@H](C(=O)N[C@@H](Cc2ccc(F)cc2)C(=O)N[C@@H](/C=C/C(=O)OCc2cn3c(C)cccc3n2)CCC(N)=O)C(C)C)no1`, the IC50 on Genome polyprotein was determined as 0.16 µM. For the same compound, the Activity in the data set with Coxsackievirus B3 [1] is given as 50%.

In turn, `Cc1cc(C(=O)N[C@H](C(=O)N[C@@H](Cc2ccc(F)cc2)C(=O)N[C@@H](/C=C/C(=O)OCc2ccc3cn[nH]c3c2)CCC(N)=O)C(C)C)no1` registered an IC50 at Genome polyprotein of 0.39 µM. The Activity in the data set on Coxsackievirus B3 [1] turned out to be 50%.

Regarding `Cc1cc(C(=O)N[C@H](C(=O)N[C@@H](Cc2ccc(F)cc2)C(=O)N[C@@H](/C=C/C(=O)OCc2ccc3ccccc3c2)CCC(N)=O)C(C)C)no1`, the IC50 against Genome polyprotein is 0.41 µM. Also, the Activity in the data set with Coxsackievirus B3 [1] was determined as 50%.

For the compound `Cc1cc(C(=O)N[C@H](C(=O)N[C@@H](Cc2ccc(F)cc2)C(=O)N[C@@H](/C=C/C(=O)OCc2ccc3[nH]ncc3c2)CCC(N)=O)C(C)C)no1`, the IC50 against Genome polyprotein came out at 0.18 µM. Further, in the data set with Coxsackievirus B3 [1], the Activity amounted to 50%.

With `Cc1cc(C(=O)N[C@H](C(=O)N[C@@H](Cc2ccc(F)cc2)C(=O)N[C@@H](/C=C/C(=O)OCc2nc3ccccc3[nH]2)CCC(N)=O)C(C)C)no1`, the midpoint of inhibition against Genome polyprotein, the IC50, lay at 0.24 µM. The Activity in the data set on Coxsackievirus B3 [1] was 50%.

Turning to `Cc1cc(C(=O)N[C@H](C(=O)N[C@@H](Cc2ccc(F)cc2)C(=O)N[C@@H](/C=C/C(=O)OCc2nc3cc(Cl)ccc3[nH]2)CCC(N)=O)C(C)C)no1`, the IC50 at Genome polyprotein was 0.65 µM. For the same compound, the Activity with Coxsackievirus B3 [1] worked out at 50%.

`Cc1cc(C(=O)N[C@H](C(=O)N[C@@H](Cc2ccc(F)cc2)C(=O)N[C@@H](/C=C/C(=O)OCc2ccc3nc[nH]c3c2)CCC(N)=O)C(C)C)no1` yielded an IC50 against Genome polyprotein of 0.47 µM. The Activity in the data set with Coxsackievirus B3 [1] was 50%.

Turning to `Cc1cc(C(=O)N[C@H](C(=O)N[C@@H](Cc2ccc(F)cc2)C(=O)N[C@@H](/C=C/C(=O)OCc2cn3cccc(C)c3n2)CCC(N)=O)C(C)C)no1`, the IC50 against Genome polyprotein was 0.17 µM. The Activity in the data set with Coxsackievirus B3 [1] is reported as 50%.

`Cc1cc(C(=O)N[C@H](C(=O)N[C@@H](Cc2ccc(F)cc2)C(=O)N[C@@H](/C=C/C(=O)OCc2cccc3cnccc23)CCC(N)=O)C(C)C)no1`: it took 0.27 µM to reach half-maximal inhibition at Genome polyprotein (IC50). In addition, the Activity in the data set on Coxsackievirus B3 [1] worked out at 50%.

Turning to `Cc1cc(C(=O)N[C@H](C(=O)N[C@@H](Cc2ccc(F)cc2)C(=O)N[C@@H](/C=C/C(=O)OCc2ccc3[nH]ncc3c2)CCC(N)=O)C(C)C)no1.Cl`, in data set [4], the solubility result is “soluble”.

As for `Cc1cc(C(=O)N[C@H](C(=O)N[C@@H](Cc2ccc(F)cc2)C(=O)N[C@@H](/C=C/C(=O)OCc2cnc3ccccc3c2)CCC(N)=O)C(C)C)no1`, the IC50 at Genome polyprotein was found to be 0.25 µM. Further, the Activity with Coxsackievirus B3 [1] and with Coxsackievirus B3 [3] was 50% in each case.

At Genome polyprotein, `Cc1cc(C(=O)N[C@H](C(=O)N[C@@H](Cc2ccc(F)cc2)C(=O)N[C@@H](/C=C/C(=O)OCc2nc(-c3ccncc3)no2)CCC(N)=O)C(C)C)no1` yielded an IC50 of 0.65 µM. For the same compound, in the data set with Coxsackievirus B3 [1], the Activity was found to be 50%.
